#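 96-well plates; 48 h exposure; 5 concentrations. Endpoints by linear interpolation between flanking doses. Not reached: highest tested concentration assigned. Here, GI50 denotes the concentration required for 50% inhibition of growth.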 The source made the active and inactive calls. Cut-off read from the data, not from the text of the source: active = GI50 up to about 1.1 µM and inactive = higher.
# Columns and labels:
# Test in all cases: DTP human tumour cell line panel, 48 h
# [1] = system: 786-0
# [2] = system: A498
# [3] = system: A549
# [4] = system: ACHN
# [5] = system: BT-549
# [6] = system: CAKI-1
# [7] = system: CCRF-CEM
# [8] = system: COLO 205
# [9] = system: DLD-1
# [10] = system: DMS-114
# [11] = system: DMS-273
# [12] = system: DU-145
# [13] = system: EKVX
# [14] = system: HCC 2998
# [15] = system: HCT-116
# [16] = system: HCT-15
# [17] = system: HL-60
# [18] = system: HOP-18
# [19] = system: HOP-62
# [20] = system: HOP-92
# [21] = system: HT-29
# [22] = system: Hs-578T
# [23] = system: IGROV-1
# [24] = system: K562
# [25] = system: KM-20L2
# [26] = system: KM12
# [27] = system: LOX IMVI
# [28] = system: M14
# [29] = system: M19-MEL
# [30] = system: MCF7
# [31] = system: MDA-MB-231
# [32] = system: MDA-MB-435
# [33] = system: MDA-N
# [34] = system: MOLT-4
# [35] = system: Malme-3M
# [36] = system: NCI-H226
# [37] = system: NCI-H23
# [38] = system: NCI-H460
# [39] = system: NCI-H522
# [40] = system: NCI/ADR-RES
# [41] = system: OVCAR-3
# [42] = system: OVCAR-4
# [43] = system: OVCAR-5
# [44] = system: OVCAR-8
# [45] = system: PC-3
# [46] = system: RPMI-8226
# [47] = system: RXF 393
# [48] = system: SF-268
# [49] = system: SF-295
# [50] = system: SF-539
# [51] = system: SK-MEL-28
# [52] = system: SK-MEL-2
# [53] = system: SK-MEL-5
# [54] = system: SK-OV-3
# [55] = system: SN12C
# [56] = system: SNB-19
# [57] = system: SNB-75
# [58] = system: SNB-78
# [59] = system: SR
# [60] = system: SW-620
# [61] = system: T47D
# [62] = system: TK-10
# [63] = system: U-251
# [64] = system: UACC-257
# [65] = system: UACC-62
# [66] = system: UO-31
# [67] = system: XF498
# [68] = system: LXFL 529
smiles,measurement,setting,value
S=c1c2nc[nH]c2ncn1CCSC1=NC=NC2=NC=NC21 (centres undefined),GI50,[1],71 µM (inactive)
same,GI50,[2],> 100 µM (inactive)
same,GI50,[3],> 100 µM (inactive)
same,GI50,[4],> 100 µM (inactive)
same,GI50,[5],> 100 µM (inactive)
same,GI50,[6],> 100 µM (inactive)
same,GI50,[7],> 82.2 µM (inactive)
same,GI50,[8],> 100 µM (inactive)
same,GI50,[9],> 100 µM (inactive)
same,GI50,[10],> 100 µM (inactive)
same,GI50,[11],64.4 µM (inactive)
same,GI50,[12],78.3 µM (inactive)
same,GI50,[13],> 100 µM (inactive)
same,GI50,[14],> 100 µM (inactive)
same,GI50,[15],> 100 µM (inactive)
same,GI50,[16],> 100 µM
same,GI50,[17],> 92 µM (inactive)
same,GI50,[18],> 100 µM (inactive)
same,GI50,[19],66.1 µM (inactive)
same,GI50,[20],> 80 µM (inactive)
same,GI50,[21],> 100 µM (inactive)
same,GI50,[22],> 100 µM (inactive)
same,GI50,[23],> 100 µM (inactive)
same,GI50,[24],30.6 µM (inactive)
same,GI50,[25],> 100 µM (inactive)
same,GI50,[26],76.2 µM (inactive)
same,GI50,[27],44.7 µM (inactive)
same,GI50,[28],43.8 µM (inactive)
same,GI50,[29],> 100 µM (inactive)
same,GI50,[30],> 100 µM (inactive)
same,GI50,[31],> 100 µM (inactive)
same,GI50,[32],53.5 µM (inactive)
same,GI50,[33],61.7 µM (inactive)
same,GI50,[34],70.5 µM (inactive)
same,GI50,[35],> 100 µM (inactive)
same,GI50,[36],> 100 µM (inactive)
same,GI50,[37],> 100 µM (inactive)
same,GI50,[38],> 100 µM (inactive)
same,GI50,[39],> 73.6 µM (inactive)
same,GI50,[40],> 100 µM (inactive)
same,GI50,[41],57.1 µM (inactive)
same,GI50,[42],> 87.3 µM (inactive)
same,GI50,[43],> 100 µM (inactive)
same,GI50,[44],> 100 µM (inactive)
same,GI50,[45],> 100 µM (inactive)
same,GI50,[46],> 85.5 µM (inactive)
same,GI50,[47],> 100 µM (inactive)
same,GI50,[48],> 100 µM (inactive)
same,GI50,[49],> 100 µM (inactive)
same,GI50,[50],> 84.1 µM (inactive)
same,GI50,[51],> 100 µM (inactive)
same,GI50,[52],> 100 µM (inactive)
same,GI50,[53],> 100 µM (inactive)
same,GI50,[54],52.2 µM (inactive)
same,GI50,[55],> 100 µM (inactive)
same,GI50,[56],> 100 µM (inactive)
same,GI50,[57],> 66.1 µM (inactive)
same,GI50,[58],73.6 µM (inactive)
same,GI50,[59],50.1 µM (inactive)
same,GI50,[60],> 100 µM (inactive)
same,GI50,[61],> 94.2 µM (inactive)
same,GI50,[62],> 76.2 µM (inactive)
same,GI50,[63],> 100 µM (inactive)
same,GI50,[64],> 81.3 µM (inactive)
same,GI50,[65],79.8 µM (inactive)
same,GI50,[66],> 100 µM (inactive)
same,GI50,[67],> 100 µM (inactive)
CC1(O)CC2C(CC1SCCO)C2(C)C (centres undefined),GI50,[1],> 100 µM (inactive)
same,GI50,[2],> 100 µM (inactive)
same,GI50,[3],> 100 µM (inactive)
same,GI50,[4],> 100 µM (inactive)
same,GI50,[7],> 100 µM (inactive)
same,GI50,[8],> 100 µM (inactive)
same,GI50,[9],> 100 µM (inactive)
same,GI50,[10],> 100 µM (inactive)
same,GI50,[11],> 100 µM (inactive)
same,GI50,[13],> 100 µM (inactive)
same,GI50,[14],> 100 µM (inactive)
same,GI50,[15],> 100 µM (inactive)
same,GI50,[16],> 100 µM
same,GI50,[17],> 100 µM (inactive)
same,GI50,[18],> 100 µM (inactive)
same,GI50,[20],> 100 µM (inactive)
same,GI50,[21],> 100 µM (inactive)
same,GI50,[23],> 100 µM (inactive)
same,GI50,[24],> 100 µM (inactive)
same,GI50,[26],> 100 µM (inactive)
same,GI50,[68],> 100 µM (inactive)
same,GI50,[28],> 100 µM (inactive)
same,GI50,[29],> 100 µM (inactive)
same,GI50,[34],> 100 µM (inactive)
same,GI50,[35],> 100 µM (inactive)
same,GI50,[37],> 100 µM (inactive)
same,GI50,[38],> 100 µM (inactive)
same,GI50,[41],> 100 µM (inactive)
same,GI50,[42],> 100 µM (inactive)
same,GI50,[43],> 100 µM (inactive)
same,GI50,[44],> 100 µM (inactive)
same,GI50,[46],> 100 µM (inactive)
same,GI50,[48],> 100 µM (inactive)
same,GI50,[49],> 100 µM (inactive)
same,GI50,[50],> 100 µM (inactive)
same,GI50,[51],> 100 µM (inactive)
same,GI50,[52],> 100 µM (inactive)
same,GI50,[53],> 100 µM (inactive)
same,GI50,[54],> 100 µM (inactive)
same,GI50,[55],> 100 µM (inactive)
same,GI50,[57],> 100 µM (inactive)
same,GI50,[58],> 100 µM (inactive)
same,GI50,[62],> 100 µM (inactive)
same,GI50,[63],> 100 µM (inactive)
same,GI50,[64],> 100 µM (inactive)
same,GI50,[66],> 100 µM (inactive)
same,GI50,[67],> 100 µM (inactive)
